The record followed here is US20260234157A1, “COMPOUND AND METHOD FOR TARGETED DEGRADATION OF ANDROGEN RECEPTOR” (Gan & Lee Pharmaceuticals Co., Ltd., priority 2023, published 2026).

Structures are written as SMILES. Changes are numbered by the printed parent chain.

Common to all, as to assay type: cell-based
Test [1] addresses T1, AR protein (Homo sapiens, UniProt P10275, T878A).
T1 construct: degradation activity of the compounds disclosed in the present disclosure on AR protein in LNCaP cells; host or cells: LNCaP FGC
T1 sequence (P10275 1-920 T878A): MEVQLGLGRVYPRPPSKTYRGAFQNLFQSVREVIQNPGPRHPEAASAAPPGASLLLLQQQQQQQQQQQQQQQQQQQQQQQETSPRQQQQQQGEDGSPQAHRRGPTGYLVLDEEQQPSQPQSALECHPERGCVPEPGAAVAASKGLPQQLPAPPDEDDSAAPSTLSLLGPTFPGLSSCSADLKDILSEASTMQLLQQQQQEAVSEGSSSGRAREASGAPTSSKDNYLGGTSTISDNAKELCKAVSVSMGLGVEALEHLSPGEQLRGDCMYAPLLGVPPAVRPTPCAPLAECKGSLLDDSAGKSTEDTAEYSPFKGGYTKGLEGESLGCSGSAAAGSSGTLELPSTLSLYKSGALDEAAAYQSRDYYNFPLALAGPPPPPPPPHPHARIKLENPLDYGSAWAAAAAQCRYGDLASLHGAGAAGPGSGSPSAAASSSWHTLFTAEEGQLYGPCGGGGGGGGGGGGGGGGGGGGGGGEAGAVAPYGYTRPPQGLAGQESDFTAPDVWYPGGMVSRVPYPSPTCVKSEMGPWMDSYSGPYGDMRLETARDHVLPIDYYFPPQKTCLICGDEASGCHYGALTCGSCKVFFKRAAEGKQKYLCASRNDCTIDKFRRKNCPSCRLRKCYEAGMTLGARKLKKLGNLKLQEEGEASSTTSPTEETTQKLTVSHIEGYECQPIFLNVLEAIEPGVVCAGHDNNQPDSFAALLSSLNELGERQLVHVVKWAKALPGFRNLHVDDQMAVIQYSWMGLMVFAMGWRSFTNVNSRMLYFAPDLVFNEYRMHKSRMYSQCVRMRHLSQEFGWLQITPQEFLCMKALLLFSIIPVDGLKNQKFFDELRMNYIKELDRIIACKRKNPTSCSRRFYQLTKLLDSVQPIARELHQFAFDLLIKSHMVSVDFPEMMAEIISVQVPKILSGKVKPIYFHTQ
The experiment in a line: Degradation of AR protein in LNCaP cells (Western blot). The conditions noted are these: LNCaP cells, 8 hours, Western blot grayscale, GAPDH internal reference; for inhibition at 0.01 µM: compound 10 nM, read-out: Degradation rates of the AR protein in LNCaP cells, 10 nM (%); for inhibition at 0.1 µM: compound 100 nM, read-out: Degradation rates of the AR protein in LNCaP cells, 100 nM (%). In a few lines:
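AR assessed by SDS-PAGE/Western blot with infrared imaging; band greyscale normalised to GAPDH gave percent degradation.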

Test [2] addresses T2, AR protein (Homo sapiens, UniProt P10275).
T2 construct: degradation activity of the compounds disclosed in the present disclosure on AR protein in VCaP cells; host or cells: VCaP
T2 sequence (P10275 1-920): T1 sequence (P10275 1-920 T878A) with A878T
The test can be described thus: Degradation of AR protein in VCaP cells (Western blot). The following applies: 8 hours; for inhibition at 0.01 µM: compound at 10 nM, read-out: Degradation rate of the AR protein in VCaP cells, 10 nM (%); for inhibition at 0.1 µM: compound at 100 nM, read-out: Degradation rate of the AR protein in VCaP cells, 100 nM (%). In a few lines:
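VCaP cells treated with compound alongside solvent controls for 8 h, then lysed in RIPA and protein quantified by BCA. AR detected by SDS-PAGE/Western blot with infrared imaging. Degradation rate calculated from band grayscale, with GAPDH as internal reference.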

A further test concerns LNCaP FGC cells. The experiment in a line: Inhibition of proliferation of LNCaP cells (WST-8). The conditions noted are these: Homo sapiens, LNCaP, 96 h, LNCaP FGC cells, 96 hours, WST-8 absorbance at 450 nm; read-out: IC50 for inhibiting the proliferation of LNCaP cells. The procedure:
The cells were cultured in a cell culture incubator with 5% CO2 at 37° C. overnight. […] On the sixth day, 96 well plates were taken out, and 20 μL of WST-8 (Beytime, C0040) reagent was added to each well.
On the technique in general: Formazan colour is commonly taken as a measure of viable cells.

The test system of a further test is VCaP cells. The test can be described thus: Inhibition of proliferation of VCaP cells (WST-8). The conditions noted are these: Homo sapiens; VCaP cells, 168 hours, WST-8 absorbance at 450 nm; read-out: IC50 for inhibiting the proliferation of VCaP cells. In a few lines: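 VCaP FGC cells, 15000 per well in DMEM with 10% FBS, were cultured at 37° C, 5% CO2. On day nine, WST-8 reagent was added to read proliferation.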

`N#Cc1ccc(O[C@H]2CC[C@H](NC(=O)c3ccc(N4CC5(CCC(C(=O)N6CCC7(CC6)COc6c7ccc7c6CN(C6CCC(=O)NC6=O)C7=O)CC5)C4)nn3)CC2)cc1Cl` (stereo partly drawn) [Compound 255]: the inhibition at 0.01 µM amounted to 55% on AR protein [1] and 63% at AR protein [2]. In addition, the inhibition at 0.1 µM on AR protein [1] is 44%; on AR protein [2], 82%. Moreover, the IC50 with LNCaP FGC cells stood at 50200 nM; in the test with VCaP cells, 11 nM.

Turning to `N#Cc1ccc(OC2CCC(NC(=O)c3ccc(N4CC5(CC(N6CCC7(CC6)COc6cc8c(cc6C7)C(=O)N(C6CCC(=O)NC6=O)C8=O)C5)C4)nn3)CC2)cc1Cl` (stereo not drawn) [Compound 66], the values for the inhibition at 0.01 µM on AR protein [1] and at AR protein [2] were 72% and 49%, respectively. In addition, the results for the inhibition at 0.1 µM at AR protein [1] and on AR protein [2] were 74% and 42%, respectively. Further, the IC50 in the test with LNCaP FGC cells came out at 420 nM; in the test with VCaP cells, 530 nM.

In the case of `N#Cc1ccc(O[C@H]2CC[C@H](NC(=O)c3ccc(N4CCC(N5CCC6(CCc7cc8c(cc7O6)C(=O)N(C6CCC(=O)NC6=O)C8=O)CC5)C(F)(F)C4)nn3)CC2)cc1Cl` (stereo partly drawn) [Compound 27], the inhibition at 0.01 µM at AR protein [1] is 14%; on AR protein [2] it was 33%. Further, the results for the inhibition at 0.1 µM on AR protein [1] and at AR protein [2] were 39% and 44%, respectively. Moreover, the IC50 was 110 nM in the test with LNCaP FGC cells and 380 nM in the test on VCaP cells.

Consider `N#Cc1ccc(O[C@H]2CC[C@H](NC(=O)c3ccc(N4CCC(C#N)(CN5CCC6(CC5)COc5c6ccc6c5C(=O)N(C5CCC(=O)NC5=O)C6=O)CC4)nn3)CC2)cc1Cl` (stereo partly drawn) [Compound 227], for which the inhibition at 0.01 µM at AR protein [1] worked out at 45%; at AR protein [2] it was 24%. Besides, the inhibition at 0.1 µM turned out to be 62% at AR protein [1] and 60% at AR protein [2]. For the same molecule, the IC50 was 170 nM in the test with LNCaP FGC cells and 30 nM in the test with VCaP cells.

With `CCC1(CN2CCC3(CC2)COc2c3ccc3c2C(=O)N(C2CCC(=O)NC2=O)C3=O)CCN(c2ccc(C(=O)N[C@H]3C(C)(C)[C@H](Oc4ccc(C#N)c(OC)c4)C3(C)C)cc2)CC1` (stereo partly drawn) [Compound 286], the inhibition at 0.01 µM on AR protein [1] is 22%; on AR protein [2], -33%. The figures for the inhibition at 0.1 µM at AR protein [1] and on AR protein [2] were 34% and -9%, respectively. In addition, the IC50 in the test on LNCaP FGC cells worked out at 3720 nM; in the test with VCaP cells, 57 nM.

As for `COc1cc(O[C@H]2CC[C@H](NC(=O)c3cnc(N4CCC(CN5CCC6(CC5)COc5c6ccc6c5C(=O)N(C5CCC(=O)NC5=O)C6=O)(OC)CC4)nc3)CC2)ccc1C#N` (stereo partly drawn) [Compound 220], the inhibition at 0.01 µM on AR protein [1] was 32%; on AR protein [2] it was 22%. Further, the results for the inhibition at 0.1 µM at AR protein [1] and at AR protein [2] were 63% and 78%, respectively. Besides, the IC50 was 64 nM with LNCaP FGC cells and 51 nM in the test with VCaP cells.

Consider `N#Cc1ccc(O[C@H]2CC[C@H](NC(=O)c3ccc(N4CCC5(CC(N6CCC7(CCc8cc9c(cc8O7)C(=O)N(C7CCC(=O)NC7=O)C9=O)CC6)C5)C4)nn3)CC2)cc1Cl` (stereo partly drawn) [Compound 35], for which the inhibition at 0.01 µM at AR protein [1] turned out to be 17%; at AR protein [2] it was 47%. Further, the results for the inhibition at 0.1 µM on AR protein [1] and on AR protein [2] were 50% and 58%, respectively. Moreover, the IC50 in the test on LNCaP FGC cells is 800 nM; in the test on VCaP cells, 500 nM.

`N#Cc1ccc(O[C@H]2CC[C@H](NC(=O)c3ccc(N4CCN(C(=O)CN5CCC6(CC5)COc5c6ccc6c5CN(C5CCC(=O)NC5=O)C6=O)CC4)nn3)CC2)cc1Cl` (stereo partly drawn) [Compound 233]: the inhibition at 0.01 µM at AR protein [1] came to 49%; on AR protein [2], 74%. For the same molecule, the inhibition at 0.1 µM at AR protein [1] was found to be 62%; on AR protein [2], 87%. Besides, the IC50 with LNCaP FGC cells was determined as 34300 nM; in the test with VCaP cells, 43 nM.

As to `N#Cc1ccc(O[C@H]2CC[C@H](NC(=O)c3ccc(N4CCC(CN5CC6(CCc7cc8c(cc7O6)CN(C6CCC(=O)NC6=O)C8=O)C5)CC4)nn3)CC2)cc1Cl` (stereo partly drawn) [Compound 7], the inhibition at 0.01 µM at AR protein [1] stood at 86%; at AR protein [2], 72%. Moreover, the inhibition at 0.1 µM at AR protein [1] and on AR protein [2] was 79% each time. In addition, the IC50 stood at 1570 nM in the test with LNCaP FGC cells and 3540 nM with VCaP cells.

Turning to `N#Cc1ccc(O[C@H]2CC[C@H](NC(=O)c3ccc(N4CCC5(CCC(N6CCC7(CC6)COc6ccc8c(c6C7)C(=O)N(C6CCC(=O)NC6=O)C8)CC5)CC4)nn3)CC2)cc1Cl` (stereo partly drawn) [Compound 149], the inhibition at 0.01 µM at AR protein [1] is 1%; on AR protein [2], -4%. Moreover, the figures for the inhibition at 0.1 µM on AR protein [1] and at AR protein [2] were 1% and 26%, respectively. Further, the figures for the IC50 in the test with LNCaP FGC cells and in the test on VCaP cells were 3730 nM and 3170 nM, respectively.

Consider `COc1cc(O[C@H]2C(C)(C)[C@H](NC(=O)c3ccc(N4CCC(C)(CN5CCC6(CC5)COc5c(ccc7c5C(=O)N(C5CCC(=O)NC5=O)C7)C6)CC4)cc3)C2(C)C)ccc1C#N` (stereo partly drawn) [Compound 266], for which the inhibition at 0.01 µM turned out to be 49% at AR protein [1] and 21% on AR protein [2]. Moreover, the inhibition at 0.1 µM stood at 73% on AR protein [1] and 74% at AR protein [2]. For the same molecule, the results for the IC50 in the test with LNCaP FGC cells and in the test with VCaP cells were 22000 nM and 3.5 nM, respectively.

Consider `N#Cc1ccc(O[C@H]2CC[C@H](NC(=O)c3ccc(N4CC[C@@H](CN5CCC6(CC5)COc5cc7c(cc56)C(=O)N(C5CCC(=O)NC5=O)C7=O)C4)nn3)CC2)cc1Cl` (stereo partly drawn) [Compound 57], for which the inhibition at 0.01 µM at AR protein [1] stood at 45%; on AR protein [2] it was 66%. In addition, the inhibition at 0.1 µM stood at 72% at AR protein [1] and 80% on AR protein [2]. The IC50 with LNCaP FGC cells was 1360 nM; in the test with VCaP cells it was 38 nM.

Consider `N#Cc1ccc(O[C@H]2CC[C@H](NC(=O)c3ccc(N4CC5(CCc6cc7c(cc6O5)C(=O)N(C5CCC(=O)NC5=O)C7=O)C4)nn3)CC2)cc1Cl` (stereo partly drawn) [Compound 6], for which the inhibition at 0.01 µM came to 58% on AR protein [1] and 13% at AR protein [2]. For the same molecule, the inhibition at 0.1 µM on AR protein [1] is 46%; on AR protein [2], 28%. The IC50 in the test with LNCaP FGC cells amounted to 5170 nM; in the test on VCaP cells, 7500 nM.
